According to article PMC8747035, “Design, Synthesis, and Biological Evaluation of 5,6,7,8-Tetrahydrobenzo[4,5]thieno[2,3-d]pyrimidines as Microtubule Targeting Agents” (Molecules, 2022):

Assays:
[1] = system: 786-0; experiment: NCI-60 growth inhibition, 786-0; format: cell-based; conditions: Homo sapiens, Renal Cancer
Source text: (§1) Compound 4 had better potency than the lead compound 1 in 50 cancer cell lines. (better by 5 to 6-fold in leukemia, 2 to 17-fold in NSCLC, 2 to 6-fold in colon cancer, 2 to 5-fold in CNS cancer, 2 to 25-fold in melanoma, 2 to 5-fold in ovarian cancer, 2 to 9-fold in renal cancer, 2 to 5-fold in prostate cancer, and 2 to 6-fold in breast cancer compared to lead compound 1).

[2] = system: OVCAR-3; experiment: NCI-60 growth inhibition, OVCAR-3; format: cell-based; conditions: Homo sapiens, Ovarian Cancer
Source text: as §1

[3] = system: HCT-15; experiment: NCI-60 growth inhibition, HCT-15; format: cell-based; conditions: Homo sapiens, Colon Cancer
Source text: as §1

[4] = system: HT29; experiment: NCI-60 growth inhibition, HT29; format: cell-based; conditions: Homo sapiens, HT-29, Colon Cancer
Source text: as §1

[5] = system: COLO 205; experiment: NCI-60 growth inhibition, COLO 205; format: cell-based; conditions: Homo sapiens, Colon Cancer
Source text: as §1

[6] = system: HS 578T; experiment: NCI-60 growth inhibition, HS 578T; format: cell-based; conditions: Homo sapiens, Breast Cancer
Source text: as §1

[7] = system: PC-3; experiment: NCI-60 growth inhibition, PC-3; format: cell-based; conditions: Homo sapiens, Prostate Cancer
Source text: as §1

[8] = system: CAKI-1; experiment: NCI-60 growth inhibition, CAKI-1; format: cell-based; conditions: Homo sapiens, Renal Cancer
Source text: as §1

[9] = system: U251; experiment: NCI-60 growth inhibition, U251; format: cell-based; conditions: Homo sapiens, U-251, CNS Cancer
Source text: as §1

[10] = system: OVCAR-8; experiment: NCI-60 growth inhibition, OVCAR-8; format: cell-based; conditions: Homo sapiens, Ovarian Cancer
Source text: as §1

[11] = system: HOP-92; experiment: NCI-60 growth inhibition, HOP-92; format: cell-based; conditions: Homo sapiens, NSCLC
Source text: as §1

[12] = system: SK-MEL-28; experiment: NCI-60 growth inhibition, SK-MEL-28; format: cell-based; conditions: Homo sapiens, Melanoma
Source text: as §1

[13] = system: MALME-3M; experiment: NCI-60 growth inhibition, MALME-3M; format: cell-based; conditions: Homo sapiens, Melanoma
Source text: as §1

[14] = system: DU-145; experiment: NCI-60 growth inhibition, DU-145; format: cell-based; conditions: Homo sapiens, Prostate Cancer
Source text: as §1

[15] = system: HL-60(TB); experiment: NCI-60 growth inhibition, HL-60(TB); format: cell-based; conditions: Homo sapiens, Leukemia
Source text: as §1

[16] = system: HOP-62; experiment: NCI-60 growth inhibition, HOP-62; format: cell-based; conditions: Homo sapiens, NSCLC
Source text: as §1

[17] = system: SK-OV-3; experiment: NCI-60 growth inhibition, SK-OV-3; format: cell-based; conditions: Homo sapiens, Ovarian Cancer
Source text: as §1

[18] = system: MDA-MB-435; experiment: NCI-60 growth inhibition, MDA-MB-435; format: cell-based; conditions: Homo sapiens, Melanoma
Source text: as §1

[19] = system: tubulin; experiment: Inhibition of [3H]colchicine binding to tubulin; parameters: species or system Bovine; conditions: compound at 5 μM, 5.0 µM [3H]colchicine, 1.0 µM tubulin
Description: Bovine brain tubulin was purified as described previously. The tubulin assembly assay has been described in detail. Briefly, 1.0 mg/mL of tubulin (10 µM) was preincubated for 15 min at 30 °C in 0.8 M monosodium glutamate (pH of 2 M stock solution adjusted to 6.6 with HCl), varying compound concentrations and 4% (v/v) DMSO as compound solvent. After the preincubation, the reaction mixtures were placed on ice and 0.4 mM GTP was added. The reaction mixtures were transferred to cuvettes at 0 °C in a recording spectrophotometer equipped with an electronic temperature controller. After baselines were established, the temperature was elevated over about 30 s to 30 °C, and changes in turbidity were monitored at 350 nm for 20 min. The compound concentration that caused a 50% reduction in increase in turbidity, interpolated from the values obtained with defined compound concentrations, was defined as the IC50 value. The assay to measure inhibition of [^3H]colchicine binding was described in detail previously. Briefly, 0.1 mg/mL (1.0 µM) tubulin was incubated at 37 °C with 5.0 µM [3H]colchicine and potential inhibitors at 5.0 µM. […] The [^3H]colchicine was a product of PerkinElmer, USA.

[20] = system: A549/ATCC; experiment: NCI-60 growth inhibition, A549/ATCC; format: cell-based; conditions: Homo sapiens, NSCLC
Source text: as §1

[21] = system: UO-31; experiment: NCI-60 growth inhibition, UO-31; format: cell-based; conditions: Homo sapiens, Renal Cancer
Source text: as §1

[22] = system: RXF 393; experiment: NCI-60 growth inhibition, RXF 393; format: cell-based; conditions: Homo sapiens, Renal Cancer
Source text: as §1

[23] = system: SK-MEL-5; experiment: NCI-60 growth inhibition, SK-MEL-5; format: cell-based; conditions: Homo sapiens, Melanoma
Source text: as §1

Structure (SMILES): COc1ccc(N(C)c2nc(N)nc3sc4c(c23)CCCC4)cc1 [Compound 4, N4-(4-methoxyphenyl)-N4-methyl-5,6,7,8-tetrahydrobenzo[4,5]thieno[2,3-d]pyrimidine-2,4-diamine]
- GI50 [1]: 12.4 nM
- GI50 [2]: 17.1 nM
- GI50 [3]: 8.85 nM
- GI50 [4]: 6.21 nM
- GI50 [5]: 10.8 nM
- GI50 [6]: 13.5 nM
- GI50 [7]: 7.67 nM
- GI50 [8]: 16.8 nM
- GI50 [9]: 9.6 nM
- GI50 [10]: 18.1 nM
- GI50 [11]: 14.1 nM
- GI50 [12]: 12.1 nM
- GI50 [13]: 12.2 nM
- GI50 [14]: 15.6 nM
- GI50 [15]: 4.38 nM
- GI50 [16]: 17.7 nM
- GI50 [17]: 15.6 nM
- GI50 [18]: 4.89 nM
- Inhibition of Colchicine Binding (% inhibition ± SD) [19]: 99.0 ± 1.0%
- GI50 [20]: 12 nM
- GI50 [21]: 11.8 nM
- GI50 [22]: 7.65 nM
- GI50 [23]: 10.8 nM
